These results are taken from patent US11584743B2, “Indole derivatives as estrogen receptor degraders” (Arvinas Operations, Inc., priority 2016, dated 2023).

For orientation: bioavailability means the share of a dose that reaches the circulation, judged against a reference dose that is usually intravenous. Broadly, the AUC(0-inf) is the area under the concentration-time curve extrapolated to infinity. High values mean high exposure, low ones low exposure. A word on the Cmax: it is the maximum level reached in the sampled fluid or tissue. One may read the Tmax as the time from dosing to the highest level. A word on the half-life: it is the time in which the quantity being followed falls by half.

A short description of this data set: Single dose subcutaneous pharmacokinetics in CD-1 mice. The data set is classed as in vivo. As to conditions: mouse, plasma, sc, 10 mg/kg single dose. As for the experimental part:
Single Dose Subcutaneous Pharmacokinetics in CD-1 Mice The subcutaneous bioavailability was determined in the following study: three CD-1 mice were dosed by subcutaneous injection (10 mg/kg) and plasma was collected at the following hourly time points (0.25, 0.5, 1, 2, 4, 8, and 24 h). Plasma compound concentations were determined by HPLC.

SMILES strings stand for the structures.

`Cc1ncsc1-c1ccc([C@H](C)NC(=O)[C@@H]2C[C@@H](O)CN2C(=O)[C@@H](NC(=O)COCCOCCOCCOc2ccc(Cn3c(-c4ccc(O)cc4)c(C)c4cc(O)ccc43)cc2)C(C)(C)C)cc1` [Example #5, (2S,4R)-4-hydroxy-1-[(2S)-2-[1-(4-[[5-hydroxy-2-(4-hydroxyphenyl)-3-methyl-1H-indol-1-yl]methyl]phenyl)-1,4,7,10-tetraoxadodecan-12-amido]-3,3-dimethylbutanoyl]-N-[(1S)-1-[4-(4-methyl-1,3-thiazol-5-yl)phenyl]ethyl]pyrrolidine-2-carboxamide]: the AUC(0-inf) worked out at 8280 ng·h/mL, the Cmax is 687 ng/mL, the Tmax came to 4 h and the half-life was 12 h. Also, the bioavailability (read-out: F % (subcutaneous bioavailability)) was 100%.
